Measurements as given in ChEMBL document CHEMBL1154600, “Knowledge-based characterization of similarity relationships in the human protein-tyrosine phosphatase family for rational inhibitor design” (J Med Chem, 2009).

How the values were obtained:
[1] = target: Tyrosine-protein phosphatase non-receptor type 6 (Homo sapiens, UniProt P29350)
[2] = target: Receptor-type tyrosine-protein phosphatase beta (Homo sapiens, UniProt P23467); experiment: Inhibition of PTPRB
[3] = target: T1, Receptor-type tyrosine-protein phosphatase C (Homo sapiens, UniProt P08575); experiment: Inhibition of PTPRC
T1 sequence (P08575 whole entry): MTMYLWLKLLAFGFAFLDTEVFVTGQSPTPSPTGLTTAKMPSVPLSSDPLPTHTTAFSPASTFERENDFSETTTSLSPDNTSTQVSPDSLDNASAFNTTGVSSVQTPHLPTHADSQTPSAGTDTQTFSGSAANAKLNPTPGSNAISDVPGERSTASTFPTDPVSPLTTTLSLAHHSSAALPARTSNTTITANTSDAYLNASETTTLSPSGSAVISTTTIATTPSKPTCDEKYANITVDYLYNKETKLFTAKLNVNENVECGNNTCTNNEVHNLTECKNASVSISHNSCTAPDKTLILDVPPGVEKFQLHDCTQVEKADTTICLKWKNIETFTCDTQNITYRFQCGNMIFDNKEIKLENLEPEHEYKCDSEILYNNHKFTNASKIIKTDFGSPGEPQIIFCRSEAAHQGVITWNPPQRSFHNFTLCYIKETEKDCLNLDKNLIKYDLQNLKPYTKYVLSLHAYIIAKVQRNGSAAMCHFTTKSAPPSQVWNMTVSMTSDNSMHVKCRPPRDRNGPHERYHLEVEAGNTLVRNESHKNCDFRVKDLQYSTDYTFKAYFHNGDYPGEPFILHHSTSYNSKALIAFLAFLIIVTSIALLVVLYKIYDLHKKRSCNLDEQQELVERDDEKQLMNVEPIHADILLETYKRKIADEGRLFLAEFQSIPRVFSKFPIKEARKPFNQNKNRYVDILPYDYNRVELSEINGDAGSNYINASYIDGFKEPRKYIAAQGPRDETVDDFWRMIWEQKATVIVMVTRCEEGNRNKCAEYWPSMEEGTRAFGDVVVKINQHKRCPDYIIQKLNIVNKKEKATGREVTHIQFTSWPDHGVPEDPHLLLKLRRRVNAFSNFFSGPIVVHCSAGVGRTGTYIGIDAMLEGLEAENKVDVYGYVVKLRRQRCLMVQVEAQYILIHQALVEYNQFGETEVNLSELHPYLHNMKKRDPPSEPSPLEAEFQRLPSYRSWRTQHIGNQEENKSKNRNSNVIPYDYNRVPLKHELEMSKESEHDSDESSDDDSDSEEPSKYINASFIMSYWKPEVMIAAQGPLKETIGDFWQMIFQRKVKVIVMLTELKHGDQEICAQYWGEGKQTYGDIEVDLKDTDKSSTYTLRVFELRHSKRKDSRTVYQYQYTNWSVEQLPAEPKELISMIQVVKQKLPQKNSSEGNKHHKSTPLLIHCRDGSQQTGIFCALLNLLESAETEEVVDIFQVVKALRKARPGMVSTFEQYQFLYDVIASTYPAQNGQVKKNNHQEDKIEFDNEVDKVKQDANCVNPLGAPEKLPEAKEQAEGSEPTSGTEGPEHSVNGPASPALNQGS

[4] = target: Receptor-type tyrosine-protein phosphatase epsilon (Homo sapiens, UniProt P23469)
[5] = target: T2, Tyrosine-protein phosphatase non-receptor type 2 (Homo sapiens, UniProt P17706)
T2 sequence (P17706 whole entry): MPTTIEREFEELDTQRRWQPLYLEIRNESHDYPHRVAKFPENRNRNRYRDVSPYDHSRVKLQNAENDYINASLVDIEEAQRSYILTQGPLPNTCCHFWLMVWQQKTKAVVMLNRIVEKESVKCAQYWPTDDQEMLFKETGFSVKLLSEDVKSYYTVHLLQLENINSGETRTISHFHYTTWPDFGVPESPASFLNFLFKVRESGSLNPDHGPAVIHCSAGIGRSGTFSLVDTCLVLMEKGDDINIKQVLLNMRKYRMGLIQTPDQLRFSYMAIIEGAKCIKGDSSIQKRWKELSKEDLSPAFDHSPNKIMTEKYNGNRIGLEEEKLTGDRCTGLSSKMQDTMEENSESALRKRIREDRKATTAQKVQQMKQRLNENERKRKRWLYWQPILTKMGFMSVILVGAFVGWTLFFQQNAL

[6] = target: Receptor-type tyrosine-protein phosphatase F (Homo sapiens, UniProt P10586); experiment: Inhibition of PTPRF
[7] = target: Receptor-type tyrosine-protein phosphatase alpha (Homo sapiens, UniProt P18433); experiment: Inhibition of PTPRA
[8] = target: Tyrosine-protein phosphatase non-receptor type 2 (Homo sapiens) (UniProt P17706); experiment: Inhibition of PTPN2

Chain of Receptor-type tyrosine-protein phosphatase beta (P23467 whole entry): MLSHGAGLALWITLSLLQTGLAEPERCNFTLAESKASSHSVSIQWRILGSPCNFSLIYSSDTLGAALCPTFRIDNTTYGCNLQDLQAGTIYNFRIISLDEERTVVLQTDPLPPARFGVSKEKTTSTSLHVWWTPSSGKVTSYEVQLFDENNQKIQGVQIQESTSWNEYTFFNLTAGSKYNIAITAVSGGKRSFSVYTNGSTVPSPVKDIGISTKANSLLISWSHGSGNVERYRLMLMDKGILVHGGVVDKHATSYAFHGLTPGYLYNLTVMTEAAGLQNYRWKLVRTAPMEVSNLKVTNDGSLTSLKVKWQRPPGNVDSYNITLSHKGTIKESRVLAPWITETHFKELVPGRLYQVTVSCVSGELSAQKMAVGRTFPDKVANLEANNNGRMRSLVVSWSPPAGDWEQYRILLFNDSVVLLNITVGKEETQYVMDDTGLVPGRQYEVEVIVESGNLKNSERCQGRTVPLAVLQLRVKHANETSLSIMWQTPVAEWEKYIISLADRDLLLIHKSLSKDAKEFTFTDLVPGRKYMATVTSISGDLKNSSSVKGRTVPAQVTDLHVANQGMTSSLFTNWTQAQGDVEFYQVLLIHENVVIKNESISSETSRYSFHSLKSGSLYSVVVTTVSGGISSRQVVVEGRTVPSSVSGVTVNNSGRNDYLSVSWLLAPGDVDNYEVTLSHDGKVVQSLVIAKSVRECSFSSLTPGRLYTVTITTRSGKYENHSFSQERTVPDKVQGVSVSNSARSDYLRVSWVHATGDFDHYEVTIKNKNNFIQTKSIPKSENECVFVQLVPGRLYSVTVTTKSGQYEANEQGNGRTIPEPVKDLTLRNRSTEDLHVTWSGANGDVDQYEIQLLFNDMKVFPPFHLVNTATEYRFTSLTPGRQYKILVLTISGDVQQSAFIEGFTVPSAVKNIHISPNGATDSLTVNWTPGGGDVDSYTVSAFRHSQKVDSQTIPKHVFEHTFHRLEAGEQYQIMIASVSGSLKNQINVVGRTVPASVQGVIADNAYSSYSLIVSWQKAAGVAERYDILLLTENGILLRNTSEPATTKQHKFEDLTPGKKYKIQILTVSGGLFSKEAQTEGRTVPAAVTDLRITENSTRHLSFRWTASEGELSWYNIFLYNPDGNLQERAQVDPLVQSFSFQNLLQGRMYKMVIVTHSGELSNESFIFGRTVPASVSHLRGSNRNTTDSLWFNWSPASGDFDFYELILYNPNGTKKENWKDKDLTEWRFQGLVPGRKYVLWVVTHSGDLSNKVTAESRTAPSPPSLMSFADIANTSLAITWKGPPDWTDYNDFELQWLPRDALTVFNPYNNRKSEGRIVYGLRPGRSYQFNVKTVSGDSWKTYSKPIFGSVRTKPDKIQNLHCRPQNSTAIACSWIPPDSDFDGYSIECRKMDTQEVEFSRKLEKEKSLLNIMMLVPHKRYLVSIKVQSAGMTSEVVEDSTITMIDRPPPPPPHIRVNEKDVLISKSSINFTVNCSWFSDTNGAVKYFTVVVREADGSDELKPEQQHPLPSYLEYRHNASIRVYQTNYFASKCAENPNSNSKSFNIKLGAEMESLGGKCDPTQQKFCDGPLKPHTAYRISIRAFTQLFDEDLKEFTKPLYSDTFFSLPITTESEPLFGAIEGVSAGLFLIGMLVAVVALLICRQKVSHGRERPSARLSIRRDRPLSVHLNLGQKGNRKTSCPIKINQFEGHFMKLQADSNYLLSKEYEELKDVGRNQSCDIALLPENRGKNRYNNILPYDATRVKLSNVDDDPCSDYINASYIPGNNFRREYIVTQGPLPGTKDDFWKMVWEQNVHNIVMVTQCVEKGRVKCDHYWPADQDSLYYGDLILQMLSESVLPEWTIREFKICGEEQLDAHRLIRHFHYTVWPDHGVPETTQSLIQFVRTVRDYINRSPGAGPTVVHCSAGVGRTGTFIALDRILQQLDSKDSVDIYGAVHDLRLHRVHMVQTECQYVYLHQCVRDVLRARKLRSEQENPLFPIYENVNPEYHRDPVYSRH
Chain of Receptor-type tyrosine-protein phosphatase F (P10586 whole entry): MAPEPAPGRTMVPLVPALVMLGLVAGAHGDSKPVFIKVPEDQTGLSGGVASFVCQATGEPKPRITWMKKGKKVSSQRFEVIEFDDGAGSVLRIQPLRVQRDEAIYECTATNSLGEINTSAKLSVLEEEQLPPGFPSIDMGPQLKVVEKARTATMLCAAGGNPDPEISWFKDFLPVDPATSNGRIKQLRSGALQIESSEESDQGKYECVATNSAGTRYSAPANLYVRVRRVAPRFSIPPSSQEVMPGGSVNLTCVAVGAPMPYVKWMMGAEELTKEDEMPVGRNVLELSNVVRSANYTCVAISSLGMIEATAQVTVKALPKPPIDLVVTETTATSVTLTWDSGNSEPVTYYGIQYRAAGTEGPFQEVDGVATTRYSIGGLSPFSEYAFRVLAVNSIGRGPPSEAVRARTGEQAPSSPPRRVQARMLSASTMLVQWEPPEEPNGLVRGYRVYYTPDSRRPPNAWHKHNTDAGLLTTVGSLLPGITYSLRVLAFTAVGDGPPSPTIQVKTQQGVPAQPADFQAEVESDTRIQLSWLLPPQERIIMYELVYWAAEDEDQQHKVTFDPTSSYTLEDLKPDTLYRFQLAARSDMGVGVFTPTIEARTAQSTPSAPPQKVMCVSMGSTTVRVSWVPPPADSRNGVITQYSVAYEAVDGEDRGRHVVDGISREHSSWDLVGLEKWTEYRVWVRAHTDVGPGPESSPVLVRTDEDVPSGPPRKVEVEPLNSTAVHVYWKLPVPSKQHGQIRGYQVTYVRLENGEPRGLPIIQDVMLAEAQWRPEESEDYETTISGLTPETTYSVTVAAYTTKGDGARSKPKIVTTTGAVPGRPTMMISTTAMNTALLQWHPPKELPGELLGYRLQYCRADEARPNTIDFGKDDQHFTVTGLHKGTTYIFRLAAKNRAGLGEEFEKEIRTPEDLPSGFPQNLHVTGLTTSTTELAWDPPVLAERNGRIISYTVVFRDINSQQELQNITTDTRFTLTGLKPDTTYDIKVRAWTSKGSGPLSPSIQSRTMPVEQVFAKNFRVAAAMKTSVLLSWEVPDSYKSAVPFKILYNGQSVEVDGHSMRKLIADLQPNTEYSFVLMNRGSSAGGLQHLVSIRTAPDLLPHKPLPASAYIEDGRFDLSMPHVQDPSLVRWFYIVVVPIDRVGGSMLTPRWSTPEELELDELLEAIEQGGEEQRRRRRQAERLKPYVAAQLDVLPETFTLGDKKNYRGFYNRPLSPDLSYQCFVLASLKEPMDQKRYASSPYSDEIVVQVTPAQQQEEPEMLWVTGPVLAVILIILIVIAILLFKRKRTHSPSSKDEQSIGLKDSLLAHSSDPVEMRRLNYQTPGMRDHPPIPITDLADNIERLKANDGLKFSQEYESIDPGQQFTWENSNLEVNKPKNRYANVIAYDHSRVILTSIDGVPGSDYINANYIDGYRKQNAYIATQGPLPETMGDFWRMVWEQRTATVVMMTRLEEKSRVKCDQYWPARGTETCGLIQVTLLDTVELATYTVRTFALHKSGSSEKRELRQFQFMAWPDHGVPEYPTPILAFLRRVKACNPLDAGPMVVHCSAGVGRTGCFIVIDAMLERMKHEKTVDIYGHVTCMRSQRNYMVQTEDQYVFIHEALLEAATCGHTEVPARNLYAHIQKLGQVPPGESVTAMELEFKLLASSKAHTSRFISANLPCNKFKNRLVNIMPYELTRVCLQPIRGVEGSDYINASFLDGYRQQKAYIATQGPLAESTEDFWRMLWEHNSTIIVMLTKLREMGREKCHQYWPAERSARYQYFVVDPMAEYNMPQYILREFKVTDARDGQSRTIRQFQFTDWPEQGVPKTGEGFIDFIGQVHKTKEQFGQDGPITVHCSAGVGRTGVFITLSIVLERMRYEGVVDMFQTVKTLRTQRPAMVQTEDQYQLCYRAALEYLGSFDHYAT
Chain of Receptor-type tyrosine-protein phosphatase alpha (P18433 whole entry): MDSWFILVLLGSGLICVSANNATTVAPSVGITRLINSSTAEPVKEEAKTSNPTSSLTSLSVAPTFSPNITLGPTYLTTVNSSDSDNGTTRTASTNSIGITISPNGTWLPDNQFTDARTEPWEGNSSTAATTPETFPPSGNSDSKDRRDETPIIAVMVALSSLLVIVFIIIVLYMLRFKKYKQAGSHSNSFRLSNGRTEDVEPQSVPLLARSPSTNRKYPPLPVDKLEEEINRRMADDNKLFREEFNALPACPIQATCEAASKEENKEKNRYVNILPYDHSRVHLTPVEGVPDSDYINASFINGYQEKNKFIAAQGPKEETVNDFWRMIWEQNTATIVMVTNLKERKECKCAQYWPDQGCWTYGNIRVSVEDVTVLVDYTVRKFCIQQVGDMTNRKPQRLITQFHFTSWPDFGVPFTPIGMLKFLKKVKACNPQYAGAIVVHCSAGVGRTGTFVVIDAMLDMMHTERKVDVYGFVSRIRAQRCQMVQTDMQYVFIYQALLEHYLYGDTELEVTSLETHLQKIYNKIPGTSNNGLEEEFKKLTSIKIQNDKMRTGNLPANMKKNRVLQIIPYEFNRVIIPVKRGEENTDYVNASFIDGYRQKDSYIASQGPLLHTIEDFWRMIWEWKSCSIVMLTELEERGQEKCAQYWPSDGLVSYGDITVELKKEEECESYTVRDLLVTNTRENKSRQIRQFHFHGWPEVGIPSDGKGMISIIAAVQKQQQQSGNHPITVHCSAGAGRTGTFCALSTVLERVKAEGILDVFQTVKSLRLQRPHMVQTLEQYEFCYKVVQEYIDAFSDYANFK

Row | SMILES | Ki [1] [µM] | Ki [2] [µM] | Ki [3] [µM] | Ki [4] [µM] | Ki [5] [µM] | Ki [6] [µM] | Ki [7] [µM] | Ki [8] [µM]
1 | O=C(O)C(=O)Nc1sc2c(c1C(=O)O)CCCC2 | 100 | 19 | 41 |  |  |  |  | 
2 | O=C(O)C(=O)Nc1ccccc1C(=O)O | 510 | 33 |  | 130 |  |  |  | 
3 | O=C(O)C(=O)Nc1sc2c(c1C(=O)O)CCNC2 | > 2000 | 560 | 59 | 1100 | 0.29 |  |  | 
4 | O=C(O)COc1c(C(=O)O)sc(-c2ccccc2)c1Br |  |  |  |  |  | > 500 |  | 
5 | CC1(C)CC(Nc2cccc(-c3sc(C(=O)O)c(OCC(=O)O)c3Br)c2)CC(C)(C)C1 |  |  |  |  |  | > 1000 |  | 
6 | O=C(O)C(=O)Nc1ccsc1C(=O)O |  |  | 260 | 360 | 58 |  | > 2000 | 
7 | O=C(O)C(=O)Nc1ccc(I)cc1C(=O)O | 80 | 17 | 49 | 33 | 14 |  |  | 
8 | O=C(O)C(=O)Nc1ccc2cc[nH]c2c1C(=O)O | 28 | 3.6 | 20 | 33 | 8 | 450 | 180 | 
9 | O=C(O)C(=O)Nc1cc2[nH]ccc2cc1C(=O)O | 16 | 6 | 56 | 66 | 14 | 550 | 800 | 
10 | O=C(O)C(=O)Nc1sccc1C(=O)O |  |  | 210 | 740 | 62 |  |  | 
11 | O=C(O)C(=O)Nc1cc2ccccc2cc1C(O)O | 94 | 14 | 37 | 45 | 9.9 | 68 | 190 | 
12 | O=C(O)C(=O)Nc1sc2c(c1C(=O)O)CCO[C@H]2COC1=NS(=O)(=O)c2ccccc21 | 289 | 21 | 489 | > 500 | 0.6 | 176 | > 500 | 1.1
13 | O=C(O)COc1c(C(=O)O)sc2c1sc1ccccc12 |  |  | > 1250 |  | 9.2 | 1100 |  | 4.1
